Measured values: publication PMC5570900, “Exploiting a novel conformational switch to control innate immunity mediated by complement protein C3a” (Nature Communications, 2017)
One block for each molecule: values may come before it.

How the values were obtained:
[1] = biological target: T1, C3aR (Homo sapiens, UniProt Q16581); test: Inhibition of hC3a-induced Ca2+ release in human monocyte-derived macrophages; type: cell-based; design: Concentration-dependent Ca^2+ release in human monocyte-derived macrophages (HMDMs); endogenous in cells; host or cells: primary human monocyte-derived macrophages (HMDMs); settings: HMDMs, hC3a 100 nM, n ≥ 3, ± SEM
T1 sequence (Q16581 1-482): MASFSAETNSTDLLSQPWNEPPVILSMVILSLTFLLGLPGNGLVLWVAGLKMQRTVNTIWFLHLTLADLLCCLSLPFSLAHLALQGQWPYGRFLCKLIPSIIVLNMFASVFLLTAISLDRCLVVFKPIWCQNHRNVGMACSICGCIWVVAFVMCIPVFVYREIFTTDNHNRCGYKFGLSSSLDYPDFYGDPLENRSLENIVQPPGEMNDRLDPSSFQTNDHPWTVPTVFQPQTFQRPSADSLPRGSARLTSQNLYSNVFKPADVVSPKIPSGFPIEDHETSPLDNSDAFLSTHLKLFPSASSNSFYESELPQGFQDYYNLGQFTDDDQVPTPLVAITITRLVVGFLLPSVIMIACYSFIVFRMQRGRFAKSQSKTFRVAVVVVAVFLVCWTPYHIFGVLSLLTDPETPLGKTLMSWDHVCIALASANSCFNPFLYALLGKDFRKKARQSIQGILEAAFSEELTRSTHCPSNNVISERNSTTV
Experimental: (§1) HMDMs were isolated using Ficoll-paque density centrifugation (GE Healthcare Bio-Science, Uppsala, Sweden) from buffy coat (of anonymous human donors) provided by the Australian Red Cross Blood Service, Brisbane. CD14^+ monocytes were positively selected using CD14 MicroBeads (Miltenyi Biotech, Auburn, USA)[40], [41]. CD14^+ monocytes were differentiated to HMDMs using 100 ng/mL of recombinant human macrophage colony-stimulating factor (PeptroTech, Rocky Hill, USA) for 7 days in Iscove’s modified Dulbecco’s media supplemented with 10% fetal bovine serum, penicillin (100 U/mL), streptomycin (100 µg/mL) and L-glutamine (2 mM). HMDMs were supplemented after 5 days with fresh medium containing 10 ng/ml macrophage colony-stimulating factor and collected by gentle scraping on day 7.
(§2) HMDMs were seeded to a 96-well clear-bottom black-wall assay plate at a density of 5 × 10^4 cells per well and allowed to adhere overnight. Prior to assay, cells were incubated with dye-loading buffer (Hank’s balance salt solution (HBSS) buffer, 4 μM Fluo-3 AM, 25 μl Pluronic acid F-127 and 1% fetal bovine serum) for 1 h at 37 °C. Cells were then washed once with assay buffer (HBSS supplemented with 2.5 mM probenecid and 20 mM HEPES, pH 7.4). Intracellular calcium release was monitored using a fluorescence imaging plate reader (excitation 495 nm, emission 520 nm). The percentage responses were plotted against logarithmic concentrations of each test compound[42].

[2] = biological target: T1, C3aR; test: Histamine secretion in human LAD2 mast cells (agonist mode); type: cell-based; design: Concentration-dependent histamine secretion in human LAD2 mast cells; endogenous in cells; host or cells: LAD2 human mast cells; settings: for EC50: compound alone, 30 min, n ≥ 3, ± SEM
Experimental: LAD2 human mast cells (kindly provided by Dr Dean Metcalfe, National Institute of Allergy and Infectious Diseases, National Institute of Health) were cultured in StemPro®-34 Serum Free Media (Invitrogen, Australia) supplemented with StemPro®-34 nutrient, 100 U/mL penicillin, 100 μg/mL streptomycin, 2 mM GlutaMAX, and 100 ng/mL human stem cell factor (SCF). Cells were hemi-depleted weekly and were not allowed to grow beyond a density of 0.5 × 10^6/mL. This cell line was authenticated by expression of tryptase and histamine granules. For the histamine assay, 1 × 10^4 cells per well were seeded in StemPro®-34 SFM in 96-well plates for 30 min before any treatments. For agonist studies, the cells were treated with compounds prepared in media for 30 min. For antagonist studies, the cells were pre-treated with compounds prepared in SFM for 30 min before addition of C3aR agonists for another 30 min. Cells were centrifuged (500 g, 5 min, 4 °C) and cell-free supernatants were collected for measuring histamine. Histamine content was measured using the histamine EIA kit according to the manufacturer’s instructions (Abnova, Taiwan). The readings were recorded on a FLUOstar Optima (BMG LabTechnologies, Offenburg, Germany).

[3] = biological target: T1, C3aR; test: Intracellular Ca2+ release in human monocyte-derived macrophages (agonist mode); type: cell-based; design: Concentration-dependent Ca^2+ release in human monocyte-derived macrophages (HMDMs); endogenous in cells; host or cells: primary human monocyte-derived macrophages (HMDMs); settings: HMDMs, n ≥ 3, ± SEM
Experimental: as §1, §2

[4] = biological target: T2, C5aR (Homo sapiens, UniProt P21730); test: [125I]-hC5a competition binding on HMDMs; settings: [125I]-hC5a 25 pM
T2 construct: endogenous in cells; host or cells: primary human monocyte-derived macrophages (HMDMs)
T2 sequence (P21730 1-350): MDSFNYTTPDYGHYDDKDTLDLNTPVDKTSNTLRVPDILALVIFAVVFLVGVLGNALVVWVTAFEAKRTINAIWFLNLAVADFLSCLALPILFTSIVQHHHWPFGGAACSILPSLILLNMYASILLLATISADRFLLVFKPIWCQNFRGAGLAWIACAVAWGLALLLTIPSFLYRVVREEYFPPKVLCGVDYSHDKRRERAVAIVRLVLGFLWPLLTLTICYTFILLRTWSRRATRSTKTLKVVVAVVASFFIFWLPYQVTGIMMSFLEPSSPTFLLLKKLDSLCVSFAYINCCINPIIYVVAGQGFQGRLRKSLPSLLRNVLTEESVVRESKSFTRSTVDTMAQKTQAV
Experimental: Receptor binding was performed by ligand competition with labelled 80 pM [^125I]-C3a or 25 pM [^125I]-C5a (2200 Ci/mmol; Perkin Elmer, Torrance, CA, USA) on HMDMs (1.2 × 10^6 cells/ml). HMDMs were treated with [^125I]-C3a or [^125I]-C5a ± various concentrations of unlabelled C3a/C5a or experimental ligands were diluted with assay buffer (50 mM Tris, 3 mM MgCl2, 0.1 mM CaCl2, 0.5% (w/v) BSA, pH 7.4) for 60 min at room temperature. Unbound [^125I]-C3a or [^125I]-C5a was removed by filtration through glass microfibre filter GF/B (Whatman Iner. Ltd, England) and washed three times with cold buffer (50 mM Tris-HCl pH 7.4). Bound [^125I]-C3a or [^125I]-C5a were assessed by scintillation counting on Microbeta counter. Specific binding was defined as the difference between total binding and nonspecific binding as determined in the presence of 1 μM unlabelled C3a or C5a[4].

[5] = system: mast cells; test: Mast cell stabilizer in BR103-induced rat paw edema; type: in vivo; settings: 20 mg/kg s.c., 30 min prior, 0.5 h
Experimental: Male Wistar rats (8–9 weeks) were injected with BR103 (3, 350 μg in 100 μL isotonic saline) into the plantar surface of both hind paw pads using a 30G needle. The inhibitor cromolyn (20 mg/kg in 5% DMSO) was injected subcutaneously 30 min before the agonist. The antagonist BR111 (6, 5–20 mg/kg in olive oil) was administered orally as a single dose 2 h before the agonist. Paw thickness and width were measured using digital calipers (WPI) at 0, 0.5, 2, 6 and 24 h after agonist BR103 administration. Hind paw size is expressed as % change in area from baseline after 0.5 h and then normalized against maximum swelling induced by agonist alone. Researchers were not blinded to treatments given. Rat paw tissue was collected and fixed in 4% paraformaldehyde (pH 7.4) for 2 h in the cold room (4 °C). The rat paw tissue was then transferred into falcon tubes containing 30% sucrose solution in PBS and left overnight in the cold room. The next day, rat paw tissue was embedded with the Optimal Cutting Temperature compound (OCT, Sakura Finetek, USA) and stored in the −80 °C freezer before being used for making cryo-sections for histological analysis. Frozen sections of 5 microns were prepared using a cryostat-microtome (Leica Biosystems, Germany) and stained using standard protocols on the same day. In normal histological staining, such as with alcian blue and safranin O and hematoxylin and eosin (H&E), samples were briefly washed with distilled water before staining. In alcian blue and safranin O, samples were stained with 0.1% alcian blue (Sigma-Aldrich, USA) and 0.5% safranin O (Sigma-Aldrich, USA) before being mounted in mounting medium. In H&E, samples were stained with hematoxylin (Sigma-Aldrich, USA) and 0.1% eosin (Sigma-Aldrich, USA) before being mounted in mounting medium. In immunohistochemistry, samples were briefly rinsed with PBS to remove OCT and incubated with blocking medium (PBS, 0.1% triton X-100, 10% horse serum) for 1 h at room temperature. Samples were incubated with primary antibody medium (PBS, 4% horse serum, 1:200 histamine or 1:200 of tryptase or 1:150 ED1 or 1:200 ED2 antibodies) overnight at 4 °C. The next day, samples were washed with PBS and were incubated with the secondary antibody medium (PBS, 4% horse serum, detection antibody 1:1000) for 1 h at room temperature. The samples were briefly rinsed, dried and counterstained with DAPI (Invitrogen, Australia). Primary antibodies for histamine (Sigma-Aldrich, USA, H2403, monoclonal rabbit anti-rat IgG, 1: 200), tryptase (Abcam, Australia, ab2378, monoclonal mouse anti-rat IgG, 1:200), ED1 (Serotec, UK, MCA341R, monoclonal mouse anti-rat, 1:150), ED2 (Serotec, UK, MCA3424R, monoclonal mouse anti-rat, 1:200) were purchased from commercial sources. Secondary detection antibody was purchased from (Invitrogen, Australia). ED1 & ED2 positive cells were quantified using FIJI/ImageJ 1.42q software, U.S. National Institutes of Health, Bethesda, MD, USA[44]. All microscope images were obtained using an Olympus BX-51 upright microscope with Olympus DP-71 12Mp colour camera, utilizing DP Capture and DP Manager software packages (Olympus, Tokyo, Japan). Researchers who performed histological analysis and scoring were blinded to the sample identity. Rat paw tissues were collected and immediately frozen with liquid nitrogen. Frozen rat paw tissues were cut into smaller pieces and mixed with 1 mL of TRIsure (Bioline, Australia) prior to homogenizing according to manufacturer’s instructions. […]

Molecule: N=C(N)NCCC[C@H](NC(=O)c1csc(C(c2ccccc2)c2ccccc2)n1)C(=O)O [Compound 1]
- Type of agonist response, histamine release [2]: partial agonist
- EC50 [2]: 110 ± 40 nM
- EC50 [3]: 50 ± 20 nM

Molecule: Cc1sc(C(c2ccccc2)c2ccccc2)nc1C(=O)N[C@@H](CCCNC(=N)N)C(=O)O [Compound 2]
- Type of agonist response, histamine release [2]: full agonist response
- EC50 [2]: 300 ± 100 nM
- EC50 [3]: 140 ± 60 nM

Molecule: O=C(O)c1cc(=O)c2c(OCC(O)COc3cccc4oc(C(=O)O)cc(=O)c34)cccc2o1 [cromolyn]
- Effect on BR103-induced histamine expression in paw [5]: reduced histamine expression
- Effect on BR103-induced infiltration of ED1+ macrophages [5]: reduced infiltration of inflammatory ED1^+ macrophages
- Effect on BR103-induced inflammatory gene expression (Il1β, Il6, Tnf, Ccl3, Mcp1) [5]: reduced expression of early response inflammatory genes
- Effect on BR103-induced mast cell activation and degranulation [5]: attenuated BR103-induced increased activation
- Effect on BR103-induced paw swelling ([5]; BR103 350 µg/paw i.pl.): significant reduction in BR103-induced paw swelling at 0.5 h, almost back to baseline levels

Further lines, results first:

- IC50 [1]: 2000 ± 1100 nM
Molecule: Cc1nc(C(c2ccccc2)c2ccccc2)sc1C(=O)NC(CCCNC(=N)N)C(=O)O (stereo not drawn) [Compound 5]

- IC50 [1]: 600 ± 200 nM
Molecule: N=C(N)NCCCC(NC(=O)c1cnc(C(c2ccccc2)c2ccccc2)s1)C(=O)O (stereo not drawn) [Compound 4]

- C5aR binding by competition with [125I]-hC5a [4]: C5aR-binding
Molecule: Ac-cyclo-(2,6)-Phe-[Orn-Pro-dCha-Trp-Arg] [Compound 3D53, reference compound]

- C5aR binding by competition with [125I]-hC5a [4]: C5aR-binding
B1: hC5a: human complement protein C5a, ligand of C5aR (protein, UniProt P01031 678-751, looked up)
C5a anaphylatoxin: TLQKKIEEIAAKYKHSVVKKCCYDGACVNNDETCEQRAARISLGPRCIKAFTECCVVASQLRANISHKDMQLGR
modifications: C5a anaphylatoxin
notes: human complement protein C5a, ligand of C5aR
